TGI and GI50 data for ten molecules are collected here from PubChem BioAssay (NCI).

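In this assay, cells in 96-well plates receive the compound at five concentrations for 48 hours. Endpoints are linearly interpolated between the surrounding concentrations. GI50 marks 50% less growth. TGI marks complete inhibition of growth.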 Some results are limits rather than exact numbers.

Some test systems named below: HCC-2998 colon; NCI-H226 lung; HOP-92 NSCLC; OVCAR-5 ovarian; EKVX NSCLC; OVCAR-4 ovarian; HOP-62 NSCLC; NCI-H522 lung; RPMI-8226 leukemia; MALME-3M melanoma.
What all share (assay): inhibition of tumour cell growth, NCI panel, 48 h

Turning to `N=c1oc2cc(O)c(O)cc2cc1C(N)=O`, the TGI in the test with HCC-2998 colon, in the test with NCI-H226 lung, in the test with HOP-92 NSCLC, with OVCAR-5 ovarian, in the test with EKVX NSCLC and with OVCAR-4 ovarian was over 100 µM throughout. Further, the TGI in the test on HOP-62 NSCLC, with NCI-H522 lung, in the test on RPMI-8226 leukemia and in the test on MALME-3M melanoma was over 100 µM each time.

As to `CCC[CH2][Sn]([CH2]CCC)([O]C(=O)c1cccc(F)c1F)[O][Sn]([CH2]CCC)([CH2]CCC)[O]C(=O)c1cccc(F)c1F`, the GI50 with HCC-2998 colon is 0.617 µM; with NCI-H226 lung, 0.317 µM; in the test with HOP-92 NSCLC, 0.13 µM; in the test on OVCAR-5 ovarian, 1.47 µM; in the test on EKVX NSCLC, 0.675 µM; in the test with OVCAR-4 ovarian it was 0.459 µM. In addition, the GI50 is 1.6 µM in the test on HOP-62 NSCLC, 0.01 µM in the test with NCI-H522 lung, 0.0288 µM with RPMI-8226 leukemia and 0.118 µM with MALME-3M melanoma. The TGI in the test with HCC-2998 colon stood at 1.92 µM; in the test on NCI-H226 lung it was 0.851 µM; in the test with HOP-92 NSCLC it was 0.399 µM; with OVCAR-5 ovarian, 2.9 µM; with EKVX NSCLC, 2.04 µM; in the test on OVCAR-4 ovarian, 1.28 µM. Also, the TGI is 3 µM in the test on HOP-62 NSCLC, 0.0697 µM in the test on NCI-H522 lung and 0.284 µM with MALME-3M melanoma.

Consider `Cc1ccc(NC(=O)/C(=N/NC(=O)CC#N)C2C(=O)N(c3ccccc3)N=C2N)cc1C` (centres undefined), for which the TGI with HCC-2998 colon, in the test on NCI-H226 lung, in the test on HOP-92 NSCLC, with OVCAR-5 ovarian, in the test with EKVX NSCLC and in the test with OVCAR-4 ovarian was over 100 µM each time. The TGI with HOP-62 NSCLC, with NCI-H522 lung, in the test with RPMI-8226 leukemia and in the test on MALME-3M melanoma was over 100 µM in each case.

With `NC(=S)N/N=C1\C(=O)N(c2cccc([N+](=O)[O-])c2)C(=O)C1C(=O)Nc1cccc([N+](=O)[O-])c1` (centres undefined), the TGI in the test on HCC-2998 colon, with NCI-H226 lung, with HOP-92 NSCLC, in the test with OVCAR-5 ovarian, with EKVX NSCLC and in the test with OVCAR-4 ovarian was over 100 µM in each case. Moreover, the TGI with HOP-62 NSCLC, in the test on NCI-H522 lung, with RPMI-8226 leukemia and with MALME-3M melanoma was over 100 µM throughout.

For the molecule `C[C@]12CC[C@H]3[C@@H](CC=C4C[C@@H](O)CC[C@@]43C)[C@@H]1C/C(=C\c1cccc(OCCCn3ccnc3)c1)[C@@H]2O`, the GI50 in the test on HCC-2998 colon is 17.8 µM; in the test with NCI-H226 lung, 16.1 µM; in the test on HOP-92 NSCLC it was 8.4 µM; in the test on OVCAR-5 ovarian it was 17.2 µM; in the test on EKVX NSCLC, 13.5 µM; in the test on OVCAR-4 ovarian, 12.8 µM. Besides, the GI50 is 15.1 µM with HOP-62 NSCLC, 14.6 µM in the test on NCI-H522 lung, 5.32 µM in the test with RPMI-8226 leukemia and 15.7 µM in the test on MALME-3M melanoma. In addition, the TGI came to 34.1 µM in the test on HCC-2998 colon; 43.4 µM with NCI-H226 lung; 25.7 µM in the test with HOP-92 NSCLC; 32.9 µM in the test with OVCAR-5 ovarian; 33.9 µM in the test with EKVX NSCLC; 32.7 µM with OVCAR-4 ovarian. In addition, the TGI came out at 32.7 µM in the test on HOP-62 NSCLC, 27.7 µM in the test on NCI-H522 lung, 25 µM in the test on RPMI-8226 leukemia and 35.9 µM with MALME-3M melanoma.

As for `COc1cc2c(cc1OCCCCCN1CCN(c3cc(=O)oc4c(C)c(OC)ccc34)CC1)N=C[C@@H]1CCCN1C2=O`, the GI50 in the test with HCC-2998 colon was 0.0111 µM; in the test on NCI-H226 lung it was under 0.01 µM; with HOP-92 NSCLC, under 0.01 µM; in the test on OVCAR-5 ovarian it was under 0.0123 µM; in the test on EKVX NSCLC, 0.174 µM; in the test on OVCAR-4 ovarian it was under 0.0178 µM. The GI50 is under 0.0107 µM in the test on HOP-62 NSCLC, under 0.01 µM in the test with NCI-H522 lung, under 0.01 µM with RPMI-8226 leukemia and 0.0182 µM in the test with MALME-3M melanoma. The TGI in the test on HCC-2998 colon was 0.0372 µM; in the test on NCI-H226 lung it was 0.0368 µM; with HOP-92 NSCLC, under 0.0141 µM; with OVCAR-5 ovarian, 0.851 µM; with EKVX NSCLC, 4.07 µM; with OVCAR-4 ovarian, 0.189 µM. Further, the TGI with HOP-62 NSCLC is 0.0301 µM; in the test on NCI-H522 lung, under 0.0352 µM; with RPMI-8226 leukemia it was under 0.0118 µM; in the test with MALME-3M melanoma, 0.0531 µM.

For the molecule `NC1=NN(c2ccccc2)C(=O)C1C(=O)C(=O)Nc1cccc(C(F)(F)F)c1` (centres undefined), the TGI with HCC-2998 colon, with NCI-H226 lung, with HOP-92 NSCLC, in the test on OVCAR-5 ovarian, in the test on EKVX NSCLC and with OVCAR-4 ovarian was over 100 µM each time. The TGI with HOP-62 NSCLC, with NCI-H522 lung, in the test on RPMI-8226 leukemia and in the test on MALME-3M melanoma was over 100 µM throughout.

As for `O=C(CSc1nc2sc3c(c2c(=O)n1-c1ccccc1)CCCCC3)N/N=C/c1ccc(F)cc1`, the GI50 was 49.5 µM with HCC-2998 colon; 2.09 µM in the test with NCI-H226 lung; 2.47 µM in the test with HOP-92 NSCLC; 3.76 µM in the test on OVCAR-5 ovarian; 11.3 µM in the test with EKVX NSCLC; 0.671 µM with OVCAR-4 ovarian. Besides, the GI50 in the test on HOP-62 NSCLC was 2.38 µM; in the test on NCI-H522 lung, 6.77 µM; in the test with RPMI-8226 leukemia, 29.5 µM; with MALME-3M melanoma it was 1.67 µM. In addition, the TGI is over 100 µM in the test with HCC-2998 colon; 4.84 µM in the test on NCI-H226 lung; 8.65 µM in the test with HOP-92 NSCLC; 20.6 µM in the test with OVCAR-5 ovarian; 41.7 µM in the test with EKVX NSCLC; 2.46 µM in the test on OVCAR-4 ovarian. The TGI with HOP-62 NSCLC is 7.39 µM; in the test on NCI-H522 lung it was 33 µM; with RPMI-8226 leukemia, over 100 µM; in the test on MALME-3M melanoma it was 5.86 µM.

Turning to `Nc1nc(F)nc2c1ncn2C1OC(COP(=O)(O)O)C(O)C1O` (centres undefined), the TGI in the test with HCC-2998 colon came out at 1170 µM; in the test with NCI-H226 lung it was 599 µM; in the test with HOP-92 NSCLC, 71.8 µM; in the test with OVCAR-5 ovarian, 617 µM; in the test on EKVX NSCLC, 406 µM; in the test on OVCAR-4 ovarian, 987 µM. Moreover, the TGI in the test on HOP-62 NSCLC worked out at 122 µM; in the test on NCI-H522 lung, 740 µM; in the test on RPMI-8226 leukemia it was 855 µM; with MALME-3M melanoma it was 254 µM.

Take `CC(=O)Oc1cc2c(=O)oc3c(OC(C)=O)c(OC(C)=O)c(OC(C)=O)c4c(=O)oc(c1OC(C)=O)c2c34`: the TGI in the test with HCC-2998 colon was over 100 µM; with NCI-H226 lung, 99 µM; with HOP-92 NSCLC, 96.9 µM; in the test on OVCAR-5 ovarian it was over 100 µM; with EKVX NSCLC, over 100 µM; in the test with OVCAR-4 ovarian, over 100 µM. The TGI in the test on HOP-62 NSCLC, in the test with NCI-H522 lung, with RPMI-8226 leukemia and in the test with MALME-3M melanoma was over 100 µM throughout.
